Assay results: patent US20260306641A1, “HELICASE DEGRADERS” (priority 2023, published 2026)

Tests used:
[1] = tested on: T1, human CMG helicase (hCMG); test: hCMG helicase fork-unwinding (strand displacement) assay; type: biochemical
T1 construct: made in house; host or cells: High Five insect cells, baculovirus (11 viruses co-infected)
Protocol: The human CMG helicase was purified following the established and validated protocol of Hurwitz and colleagues(19,20), with minor modifications. A detailed description of the approach is shown here, to allow for comparisons to the methods described by the Hurwitz group.
High Five insect cells (2-3 million cells/ml, 1.5 L), were in cultured in a shaking incubator at 27° C. in suspension with ESF921 serum free medium (Expression Systems, CA; cat. #96-001-01), then co-infected for 60 hrs with 11 baculoviruses expressing human 6His2Flag-Cdc45, the human MCM hexamer (Mcm2, Mcm3, Mcm4, Mem5, Mcm6, Mcm7), and human GINS (GST-Sld5, Psf3, Psf2, and Psf1). Each virus was infected at an MOI of ~10 from individual virus stocks. Infected cells were harvested by centrifugation at 650×g for 5 min at 4° C., washed with cold PBS, frozen on dry ice, and stored at −80° C. until use. The cell pellet (~20 mL) was thawed on ice, resuspended in 45 ml Hypotonic Buffer [20 mM Hepes-NaOH (pH 7.5), 5 mM KCl, 1.5 mM MgCl2] with protease inhibitors (1 mM [COMPOUND LEFT OUT], 1 mM Benzamidine, 0.15 μM Aprotinin, 4 μM Leupeptin, and 1 μM Antipain), and kept on ice for 10 min before lysing by Dounce homogenization (tight fitting, 60 strokes). The cell extract was adjusted to 0.42 M potassium acetate and centrifuged at 43,000×g for 1 hr at 4° C. The cleared lysate was mixed with 0.75 ml glutathione beads (cat. #17-0756-05; GE Healthcare) pre-equilibrated with FEQ buffer [20 mM Hepes-NaOH (pH 7.5), 0.42 M potassium acetate, 5 mM KCl, 1.5 mM MgCl2] and incubated by rotation at 4° C. overnight. Following centrifugation at 290×g at 4° C., the bound glutathione beads were washed four times (15 min each wash) with 40 ml of FW buffer [20 mM Hepes-NaOH (pH 7.5), 0.42 M potassium acetate, 1 mM DTT, 1 mM EDTA, 0.01% NP40, 10% glycerol (vol/vol) with protease inhibitors as above] containing protease inhibitors (as above). Bound proteins were eluted at 4° C. three times (1 hr each elution) with 3.5 ml Q buffer [20 mM Hepes-NaOH (pH 7.5), 1 mM DTT, 1 mM EDTA, 0.01% NP40, 10% glycerol (vol/vol), and protease inhibitors as above] containing 0.15 M potassium acetate and 20 mM reduced glutathione. The eluted fractions were combined and applied to a HiTrap Q-Sepharose FF column (HiTrap Q FF 1 mL, cat. #17505301, Cytiva), pre-equilibrated 3× with 5 ml of Q buffer containing 0.15 M, 0.75 M, 0.15M potassium acetate, in sequence. The Q-Sepharose FF column was washed with 10 ml of FW buffer containing protease inhibitors (as above). The proteins were eluted with 10 ml of Q buffer containing 0.75 M potassium acetate. The eluted fraction was mixed with 0.15 ml of anti-Flag M2 affinity gel/beads and incubated while rotating at 4° C. overnight. After centrifugation at 290×g for 5 min at 4° C., the beads were washed three times with 10 ml PreScission buffer [50 mM Tris-HCl (pH 7.5), 0.15 M NaCl, 1 mM DTT, 1 mM EDTA] for 15 min at 4° C., and eluted at 4° C. three times (1 hr each elution) with 0.2 ml PreScission enzyme buffer containing 0.2 mg/ml 3×-Flag peptides. The combined eluates were incubated with 20 Units of PreScission Protease (GE Healthcare) and 0.1 mL glutathione beads for 4 hr at 4° C. The supernatant was layered onto a 15-40% glycerol gradient [25 mM Tris-HCl (pH 7.5), 50 mM NaCl, 1 mM DTT, 1 mM EDTA, 0.01% NP40, protease inhibitors as above] in a 5 mL ultra-centrifugation tube and centrifuged at 260,000×g for 14 hr at 4° C. Glycerol fractions (0.15 mL each fraction) were collected from bottom of tube and stored at −80° C. until use. Typically, fractions 6-9 contained complete hCMG (~750-800 kDa) and co-migrated with thyroglobulin.
Helicase fork-unwinding assays were performed at 37° C. for 1 hr in 20 μL reaction volumes using 2-4 μl of hCMG (~15-30 fmol), in a buffer consisting of 25 mM Hepes-NaOH (pH 7.5), 5 mM NaCl, 0.5 mM ATP, 10 mM magnesium acetate, 1 mM DTT, 0.1 mg/ml bovine serum albumin (BSA), and ~10 fmol of radiolabeled DNA forks (20). […]

[2] = tested on: HaCaT cells; test: BrdU labeling of DNA replication in synchronized HaCaT cells; type: cell-based, human; details: for DNA replication (BrdU), early G1 treatment: added at time 0, 15 μM; for DNA replication (BrdU), early S-phase treatment: treated at 18 hrs, analyzed 3 hrs later, CA1/novobiocin 15 μM, etoposide 5 μM
Protocol: Verification of synchronization and determination of drug effects was performed by measuring the incorporation of bromo-deoxyuridine (BrdU) into replicating foci within nuclei. At times indicated, cells were pulse-labeled with 15 μM BrdU for 30 min, fixed with 4% paraformaldehyde, and analyzed by standard immunofluorescent techniques(40,51) with an anti-BrdU monoclonal antibody (Roche, clone no. BMC9318, RRID:AB_2313622). The average counts of three fields of 100 or more cells were used to determine the percentages of BrdU-labeled nuclei, +/−1 s.d.

[3] = tested on: MCM/CMG and replisome proteins in HaCaT cells; test: Immunoblots of chromatin-bound or total proteins, synchronized HaCaT cells; type: cell-based, human
[4] = treated at 18 hr (early S-phase)

T1 sequence (P49736 whole entry): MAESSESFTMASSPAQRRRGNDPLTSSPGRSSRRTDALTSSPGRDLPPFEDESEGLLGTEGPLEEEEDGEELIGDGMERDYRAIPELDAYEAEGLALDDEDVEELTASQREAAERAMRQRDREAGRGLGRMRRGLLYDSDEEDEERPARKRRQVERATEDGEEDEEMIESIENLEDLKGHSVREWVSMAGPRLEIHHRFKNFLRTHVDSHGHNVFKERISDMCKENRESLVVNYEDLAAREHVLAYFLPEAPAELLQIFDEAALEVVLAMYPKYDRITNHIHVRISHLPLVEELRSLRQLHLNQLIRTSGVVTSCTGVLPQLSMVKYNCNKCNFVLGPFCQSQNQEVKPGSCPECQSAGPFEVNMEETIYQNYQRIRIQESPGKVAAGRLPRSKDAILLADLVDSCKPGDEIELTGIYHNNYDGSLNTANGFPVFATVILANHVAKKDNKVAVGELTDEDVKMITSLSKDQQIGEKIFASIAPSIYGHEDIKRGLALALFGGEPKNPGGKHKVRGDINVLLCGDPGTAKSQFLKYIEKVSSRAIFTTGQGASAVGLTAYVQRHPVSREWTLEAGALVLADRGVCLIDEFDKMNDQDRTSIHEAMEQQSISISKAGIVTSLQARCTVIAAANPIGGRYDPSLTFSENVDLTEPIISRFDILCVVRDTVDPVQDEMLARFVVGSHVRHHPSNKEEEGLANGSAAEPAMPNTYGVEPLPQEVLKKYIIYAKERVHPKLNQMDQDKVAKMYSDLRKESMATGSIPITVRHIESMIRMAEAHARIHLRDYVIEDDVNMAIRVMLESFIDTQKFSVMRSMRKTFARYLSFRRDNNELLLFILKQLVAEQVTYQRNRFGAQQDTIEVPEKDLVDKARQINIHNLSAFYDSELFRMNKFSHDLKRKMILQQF
T1 sequence (P25205 whole entry, further chain): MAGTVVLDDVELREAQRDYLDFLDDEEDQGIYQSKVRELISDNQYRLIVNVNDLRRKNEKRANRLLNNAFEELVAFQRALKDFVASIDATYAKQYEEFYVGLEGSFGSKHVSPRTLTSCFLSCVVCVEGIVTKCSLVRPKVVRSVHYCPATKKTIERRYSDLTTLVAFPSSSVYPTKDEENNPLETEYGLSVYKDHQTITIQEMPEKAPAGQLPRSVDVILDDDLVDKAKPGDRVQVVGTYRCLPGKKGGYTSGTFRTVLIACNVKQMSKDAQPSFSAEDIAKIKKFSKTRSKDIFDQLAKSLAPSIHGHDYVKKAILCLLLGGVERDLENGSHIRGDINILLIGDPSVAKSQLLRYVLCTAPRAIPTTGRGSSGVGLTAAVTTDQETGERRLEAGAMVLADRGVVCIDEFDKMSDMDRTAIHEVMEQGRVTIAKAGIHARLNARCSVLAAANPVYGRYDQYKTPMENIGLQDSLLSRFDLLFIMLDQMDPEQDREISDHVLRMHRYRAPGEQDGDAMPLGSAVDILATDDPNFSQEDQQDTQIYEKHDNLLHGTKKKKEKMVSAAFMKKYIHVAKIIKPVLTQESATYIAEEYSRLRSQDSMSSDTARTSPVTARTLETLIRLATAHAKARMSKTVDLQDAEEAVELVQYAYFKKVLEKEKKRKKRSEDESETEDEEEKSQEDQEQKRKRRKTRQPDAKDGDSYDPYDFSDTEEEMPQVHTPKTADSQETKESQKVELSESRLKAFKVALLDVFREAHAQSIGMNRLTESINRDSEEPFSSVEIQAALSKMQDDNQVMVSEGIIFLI
T1 sequence (P33991 whole entry, further chain): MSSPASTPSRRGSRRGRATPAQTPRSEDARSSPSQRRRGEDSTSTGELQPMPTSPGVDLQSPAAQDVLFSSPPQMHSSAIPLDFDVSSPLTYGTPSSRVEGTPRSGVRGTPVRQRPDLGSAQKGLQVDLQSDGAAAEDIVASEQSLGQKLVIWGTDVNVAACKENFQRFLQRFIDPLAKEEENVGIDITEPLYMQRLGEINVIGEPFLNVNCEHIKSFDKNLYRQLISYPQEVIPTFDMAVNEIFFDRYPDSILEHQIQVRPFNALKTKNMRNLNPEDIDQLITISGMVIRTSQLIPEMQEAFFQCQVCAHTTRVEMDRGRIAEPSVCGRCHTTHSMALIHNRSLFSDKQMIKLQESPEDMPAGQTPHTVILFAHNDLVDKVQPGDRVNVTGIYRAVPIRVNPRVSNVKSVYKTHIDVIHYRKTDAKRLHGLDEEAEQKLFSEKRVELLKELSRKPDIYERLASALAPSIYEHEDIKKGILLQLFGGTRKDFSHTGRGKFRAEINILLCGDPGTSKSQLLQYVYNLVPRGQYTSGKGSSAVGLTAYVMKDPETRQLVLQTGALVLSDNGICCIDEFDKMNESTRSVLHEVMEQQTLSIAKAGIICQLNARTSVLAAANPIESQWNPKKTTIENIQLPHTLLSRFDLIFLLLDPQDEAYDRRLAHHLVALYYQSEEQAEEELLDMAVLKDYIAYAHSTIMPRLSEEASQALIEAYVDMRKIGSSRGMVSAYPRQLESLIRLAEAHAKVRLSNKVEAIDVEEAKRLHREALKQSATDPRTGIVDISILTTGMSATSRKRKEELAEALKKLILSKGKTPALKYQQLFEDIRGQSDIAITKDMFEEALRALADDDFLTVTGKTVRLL
T1 sequence (P33992 whole entry, further chain): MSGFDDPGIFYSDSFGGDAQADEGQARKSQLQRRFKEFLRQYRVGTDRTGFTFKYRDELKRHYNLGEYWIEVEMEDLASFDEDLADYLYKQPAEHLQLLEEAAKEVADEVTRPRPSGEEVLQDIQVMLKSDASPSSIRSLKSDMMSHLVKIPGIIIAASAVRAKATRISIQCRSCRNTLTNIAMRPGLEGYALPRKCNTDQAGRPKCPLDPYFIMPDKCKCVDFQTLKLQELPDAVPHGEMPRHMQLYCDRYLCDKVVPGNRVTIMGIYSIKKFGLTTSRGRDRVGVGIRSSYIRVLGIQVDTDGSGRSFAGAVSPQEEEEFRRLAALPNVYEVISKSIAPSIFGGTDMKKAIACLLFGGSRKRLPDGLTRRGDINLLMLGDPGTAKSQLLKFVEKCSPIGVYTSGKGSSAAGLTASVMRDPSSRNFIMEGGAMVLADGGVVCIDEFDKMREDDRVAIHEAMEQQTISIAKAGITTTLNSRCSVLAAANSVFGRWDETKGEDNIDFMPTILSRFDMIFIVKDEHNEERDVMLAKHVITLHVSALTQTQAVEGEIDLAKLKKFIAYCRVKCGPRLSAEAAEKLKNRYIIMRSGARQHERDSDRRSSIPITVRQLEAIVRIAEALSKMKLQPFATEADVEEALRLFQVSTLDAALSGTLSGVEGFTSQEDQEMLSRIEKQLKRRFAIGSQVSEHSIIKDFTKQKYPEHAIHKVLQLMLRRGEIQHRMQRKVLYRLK
T1 sequence (Q14566 whole entry, further chain): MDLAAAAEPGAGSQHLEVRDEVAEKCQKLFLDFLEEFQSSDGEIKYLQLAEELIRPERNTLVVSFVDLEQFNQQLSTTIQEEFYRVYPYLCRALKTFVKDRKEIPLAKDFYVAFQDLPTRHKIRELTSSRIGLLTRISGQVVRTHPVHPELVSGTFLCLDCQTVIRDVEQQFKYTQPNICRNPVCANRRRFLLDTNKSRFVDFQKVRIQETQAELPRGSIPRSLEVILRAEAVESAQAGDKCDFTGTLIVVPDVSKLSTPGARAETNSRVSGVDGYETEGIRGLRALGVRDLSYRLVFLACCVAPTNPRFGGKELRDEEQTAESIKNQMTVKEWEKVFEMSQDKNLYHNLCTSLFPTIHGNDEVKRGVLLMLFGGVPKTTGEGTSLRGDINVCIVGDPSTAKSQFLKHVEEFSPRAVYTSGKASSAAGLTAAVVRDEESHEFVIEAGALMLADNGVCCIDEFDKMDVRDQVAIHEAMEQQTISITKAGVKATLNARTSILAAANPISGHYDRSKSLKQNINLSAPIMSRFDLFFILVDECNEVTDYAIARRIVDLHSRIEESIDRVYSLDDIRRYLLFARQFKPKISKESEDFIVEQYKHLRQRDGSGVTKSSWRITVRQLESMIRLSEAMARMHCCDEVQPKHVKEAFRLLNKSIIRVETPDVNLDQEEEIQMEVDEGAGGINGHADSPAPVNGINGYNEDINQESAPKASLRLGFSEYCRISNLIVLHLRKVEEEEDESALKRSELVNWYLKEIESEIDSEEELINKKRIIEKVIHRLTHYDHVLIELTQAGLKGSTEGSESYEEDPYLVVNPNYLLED
T1 sequence (P33993 whole entry, further chain): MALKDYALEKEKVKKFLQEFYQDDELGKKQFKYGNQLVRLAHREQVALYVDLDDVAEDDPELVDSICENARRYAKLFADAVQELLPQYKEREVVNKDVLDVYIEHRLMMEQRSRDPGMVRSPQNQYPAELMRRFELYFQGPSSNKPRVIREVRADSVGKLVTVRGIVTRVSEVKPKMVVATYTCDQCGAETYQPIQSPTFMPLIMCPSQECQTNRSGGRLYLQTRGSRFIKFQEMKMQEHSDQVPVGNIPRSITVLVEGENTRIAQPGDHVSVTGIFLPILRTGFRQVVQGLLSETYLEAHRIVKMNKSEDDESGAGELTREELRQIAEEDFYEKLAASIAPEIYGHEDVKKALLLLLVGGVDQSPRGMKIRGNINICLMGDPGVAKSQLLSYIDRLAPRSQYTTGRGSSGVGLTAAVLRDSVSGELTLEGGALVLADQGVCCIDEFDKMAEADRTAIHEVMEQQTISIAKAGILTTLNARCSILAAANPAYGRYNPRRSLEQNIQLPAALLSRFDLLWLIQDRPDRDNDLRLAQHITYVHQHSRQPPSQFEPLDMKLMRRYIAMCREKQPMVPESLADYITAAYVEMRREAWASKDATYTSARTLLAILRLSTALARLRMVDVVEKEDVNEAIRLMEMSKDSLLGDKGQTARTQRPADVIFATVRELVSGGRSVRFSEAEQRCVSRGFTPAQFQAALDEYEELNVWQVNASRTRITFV

CO[C@@H]1[C@@H](OC(=O)c2ccc(C)[nH]2)[C@@H](O)[C@H](Oc2ccc3c(O)c(NC(=O)c4c[nH]c(C(=O)Nc5c(O)c6ccc(O[C@@H]7OC(C)(C)[C@H](OC)[C@@H](OC(=O)c8ccc(C)[nH]8)[C@H]7O)c(C)c6oc5=O)c4C)c(=O)oc3c2C)OC1(C)C [CA1]
hCMG helicase inhibition in secondary strand-displacement assay ([1]; 500 μM compound): effective hCMG helicase inhibitors | inhibition of hCMG helicase activity, SAR set ([1]; 500 μM compound): potently inhibit the hCMG | hCMG helicase activity inhibition ([1]; fork-unwinding, ~15 fmol hCMG, 0.5 mM ATP): 100% | mode of inhibition of hCMG helicase activity ([1]; role: inhibitor, CA1 2.5 μM, increasing ATP): classic ATP-competitive mechanism | DNA replication (BrdU), early G1 treatment [2]: inhibits DNA replication | DNA replication (BrdU), late-G1 treatment ([2]; treated at 12 hrs, assessed at 18 hrs): fail to undergo DNA replication | DNA replication (BrdU), early S-phase treatment [2]: effectively suppressed DNA replication | Ctf4 and Mcm10 on chromatin ([3]; S-phase cells): reduced on chromatin | DNA polymerases-a, -d and -e on chromatin ([3]; S-phase cells): caused a loss of DNA polymerases-a, -d, and -e from chromatin | RPA on chromatin ([3]; S-phase cells): reduced on chromatin | GINS and Cdc45 loading onto chromatin ([3]; early-G1 treatment): blocked | Orc2 chromatin binding ([3]; early-G1 treatment): not affected | MCM loading onto chromatin ([3]; early-G1 treatment, assessed 18 hrs): significantly inhibited | Cdc45 recruitment ([3]; late-G1 treatment (12 hrs)): not appreciably affected | Cdt1 dynamics ([3]; late-G1 treatment (12 hrs)): does not affect Cdt1 dynamics | GINS recruitment to DNA-loaded MCM hexamers ([3]; late-G1 treatment (12 hrs)): inhibits GINS recruitment to DNA-loaded MCM hexamers | remainder of MCM loading ([3]; late-G1 treatment (12 hrs)): only a small effect, if any | Cdc6 chromatin association, polyclonal antibody ([3]; middle G1 exposure): not affected in chromatin association | Cdc6 form on chromatin, monoclonal antibody ([3]; middle G1 exposure): sensitive to CA1 | Orc2 and Orc4 affinity for chromatin ([3]; middle G1 exposure): not affected | Cdt1 loading on chromatin ([3]; treated at 6 hrs (middle G1)): blocks this Cdt1 loading | MCMs already loaded on chromatin ([3]; treated at 6 hrs (middle G1)): does not affect MCMs already loaded | increase in MCM loading at 12 hrs ([3]; treated at 6 hrs (middle G1)): inhibited by CA1 | total Cdt1 ([3]; treated at 6 hrs (middle G1)): promotes loss of total Cdt1 | GINS and Cdc45 chromatin association [3, 4]: notably suppressed | total protein levels of Psf3 and Cdc45 [3, 4]: slightly affected

CO[C@@H]1[C@@H](OC(N)=O)[C@@H](O)[C@H](Oc2ccc3c(O)c(NC(=O)c4ccc(O)c(CC=C(C)C)c4)c(=O)oc3c2C)OC1(C)C [novobiocin]
inhibition of hCMG helicase activity, SAR set ([1]; 500 μM compound): only a small level of inhibition | DNA replication (BrdU), early G1 treatment [2]: little effect | DNA replication (BrdU), early S-phase treatment [2]: did not | increase in MCM loading at 12 hrs ([3]; treated at 6 hrs (middle G1)): not by novobiocin
